Test results taken from patent US20110201818A1, “POLO-LIKE KINASE INHIBITORS” (TAKEDA PHARMACEUTICAL COMPANY LIMITED, priority 2007, published 2011).

Target: T1, human PLK1 (Homo sapiens, UniProt P53350)
T1 construct: FLAG (DYKDDDDK) (N); made in house; host or cells: Sf21 insect cells, recombinant baculovirus (pFASTBAC1, Bac-to-Bac)
Assay: PLK1 in vitro enzymatic activity assay (phosphorylation of alpha casein by recombinant PLK1)
Type: biochemical
Settings: recombinant FLAG-tagged PLK1, alpha casein substrate, 500 nmol/L ATP, 40 min at room temperature; read-out: pIC50 (PLK1) (converted)
Protocol: PCR was performed using the vector as a template. […] After XbaI and XhoI digestion of the PCR product, the fragment was subcloned into pFASTBAC1 (Invitrogen, USA). Recombinant baculoviruses were prepared according to the procedure of the Bac-to-Bac baculovirus expression system (Invitrogen, USA). Sf21 cells were purchased from Invitrogen and grown in Sf-900 II SFM medium containing 10% fetal bovine serum, 50 μg/mL gentamicin and 0.1% pluronic F-68 (Invitrogen, USA) at 28° C. For preparation of PLK1 enzyme, Sf21 cells were infected with recombinant baculoviruses and cultured at 28° C. for 72 h.
The inhibition of PLK1 by the compounds was determined with the following assay that measures the phosphorylation of alpha casein by recombinant PLK1. Kinase reactions were performed at room temperature for 40 min in the kinase reaction buffer (25 mmol/L HEPES, pH 7.5, 10 mmol/L magnesium acetate, 1 mmol/L dithiothreitol) containing 50 ng PLK1 enzyme, 0.1 μCi [γ-^32P]ATP, 500 nmol/L ATP and 3 μg alpha casein (MP Biomedicals Inc., USA) in a final volume of 50 μL. The incubation was terminated by the addition of 10% trichloroacetic acid (Wako, Japan). Phosphorylated proteins were filtrated in GF/C filter plates (Packard, USA) with a Cell harvester (Packard, USA) and washed out free [γ-^32P]-ATP with 250 mmol/L phosphoric acid. Then, the plates were air dried for 60 min at 45° C., followed by the addition of 20 μL of MicroScint-O (Packard, USA). The radioactivity was counted by a Top-count scintillation counter (Packard, USA).

T1 sequence (P53350 with tags, fused parts or gaps): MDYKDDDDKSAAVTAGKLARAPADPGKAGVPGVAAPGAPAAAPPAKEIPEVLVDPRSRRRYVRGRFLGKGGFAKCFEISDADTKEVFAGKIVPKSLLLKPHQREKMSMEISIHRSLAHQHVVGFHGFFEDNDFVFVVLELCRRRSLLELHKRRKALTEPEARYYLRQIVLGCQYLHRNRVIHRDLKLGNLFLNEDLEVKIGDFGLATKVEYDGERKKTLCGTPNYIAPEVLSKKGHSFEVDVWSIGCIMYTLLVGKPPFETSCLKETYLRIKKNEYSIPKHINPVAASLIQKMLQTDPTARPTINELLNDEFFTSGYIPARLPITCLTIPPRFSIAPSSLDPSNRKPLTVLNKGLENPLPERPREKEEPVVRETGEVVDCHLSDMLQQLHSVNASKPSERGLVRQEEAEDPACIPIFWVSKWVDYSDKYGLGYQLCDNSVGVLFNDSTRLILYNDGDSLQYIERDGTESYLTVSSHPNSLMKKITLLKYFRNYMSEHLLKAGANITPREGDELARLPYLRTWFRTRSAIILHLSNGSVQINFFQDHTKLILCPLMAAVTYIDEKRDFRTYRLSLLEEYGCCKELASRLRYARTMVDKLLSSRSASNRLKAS

Row | IC50 [nM] | Structure (SMILES)
1 | ≤ 2 | COc1cc(C(=O)O)c(F)cc1Nc1ncc2c(n1)N(C1CCCC1)CC(F)(F)C(=O)N2C [Compound 31, 4-(9-Cyclopentyl-7,7-difluoro-5-methyl-6-oxo-6,7,8,9-tetrahydro-5H-pyrimido[4,5-b][1,4]diazepin-2-ylamino)-2-fluoro-5-methoxybenzoic acid]
2 | ≤ 2 | COc1cc(C(=O)NC2CCN(C)CC2)ccc1Nc1ncc2c(n1)N(C1CCCCC1)CC(F)(F)C(=O)N2C [Compound 33, 4-(9-cyclohexyl-7,7-difluoro-5-methyl-6-oxo-6,7,8,9-tetrahydro-5H-pyrimido[4,5-b][1,4]diazepin-2-ylamino)-3-methoxy-N-(1-methylpiperidin-4-yl)benzamide]
3 | ≤ 2 | COc1cc(C(=O)NN2CCN(C)CC2)ccc1Nc1ncc2c(n1)N(C1CCCCC1)CC(F)(F)C(=O)N2C [Compound 34, 4-(9-cyclohexyl-7,7-difluoro-5-methyl-6-oxo-6,7,8,9-tetrahydro-5H-pyrimido[4,5-b][1,4]diazepin-2-ylamino)-3-methoxy-N-(4-methylpiperazin-1-yl)benzamide]
4 | ≤ 2 | COc1cc(C(=O)NC2CN(C)C2)ccc1Nc1ncc2c(n1)N(C1CCCCC1)CC(F)(F)C(=O)N2C [Compound 35, 4-(9-Cyclohexyl-7,7-difluoro-5-methyl-6-oxo-6,7,8,9-tetrahydro-5H-pyrimido[4,5-b][1,4]diazepin-2-ylamino)-3-methoxy-N-(1-methylazetidin-3-yl)benzamide]
5 | ≤ 2 | CCN1CCC(NC(=O)c2ccc(Nc3ncc4c(n3)N(C3CCCCC3)CC(F)(F)C(=O)N4C)c(OC)c2)CC1 [Compound 36, 4-(9-cyclohexyl-7,7-difluoro-5-methyl-6-oxo-6,7,8,9-tetrahydro-5H-pyrimido[4,5-b][1,4]diazepin-2-ylamino)-N-(1-ethylpiperidin-4-yl)-3-methoxybenzamide]
6 | > 2 | COc1cc(C(=O)N[C@H]2CCCNC2)ccc1Nc1ncc2c(n1)N(C1CCCCC1)CC(F)(F)C(=O)N2C [Compound 37, (S)-4-(9-cyclohexyl-7,7-difluoro-5-methyl-6-oxo-6,7,8,9-tetrahydro-5H-pyrimido[4,5-b][1,4]diazepin-2-ylamino)-3-methoxy-N-(piperidin-3-yl)benzamide]
7 | ≤ 2 | COc1cc(C(=O)N[C@@H]2CCCNC2)ccc1Nc1ncc2c(n1)N(C1CCCCC1)CC(F)(F)C(=O)N2C [Compound 38, (R)-4-(9-cyclohexyl-7,7-difluoro-5-methyl-6-oxo-6,7,8,9-tetrahydro-5H-pyrimido[4,5-b][1,4]diazepin-2-ylamino)-3-methoxy-N-(piperidin-3-yl)benzamide]
8 | ≤ 2 | COc1cc(C(=O)N[C@H]2CC[C@H](O)CC2)ccc1Nc1ncc2c(n1)N(C1CCCCC1)CC(F)(F)C(=O)N2C [Compound 40, 4-(9-cyclohexyl-7,7-difluoro-5-methyl-6-oxo-6,7,8,9-tetrahydro-5H-pyrimido[4,5-b][1,4]diazepin-2-ylamino)-N-((1r,4r)-4-hydroxycyclohexyl)-3-methoxybenzamide]
9 | ≤ 2 | COc1cc(C(=O)N[C@H]2CC[C@H](OP(=O)(O)O)CC2)ccc1Nc1ncc2c(n1)N(C1CCCCC1)CC(F)(F)C(=O)N2C [Compound 41, (1R,4R)-4-(4-(9-cyclohexyl-7,7-difluoro-5-methyl-6-oxo-6,7,8,9-tetrahydro-5H-pyrimido[4,5-b][1,4]diazepin-2-ylamino)-3-methoxybenzamido)cyclohexyl dihydrogen phosphate]
10 | ≤ 2 | COc1cc(C(=O)NC2CCCNCC2)ccc1Nc1ncc2c(n1)N(C1CCCCC1)CC(F)(F)C(=O)N2C (stereo not drawn) [Compound 42, N-(azepan-4-yl)-4-(9-cyclohexyl-7,7-difluoro-5-methyl-6-oxo-6,7,8,9-tetrahydro-5H-pyrimido[4,5-b][1,4]diazepin-2-ylamino)-3-methoxybenzamide]
11 | ≤ 2 | COc1cc(C(=O)NC2CNC2)ccc1Nc1ncc2c(n1)N(C1CCCCC1)CC(F)(F)C(=O)N2C [Compound 43, N-(azetidin-3-yl)-4-(9-cyclohexyl-7,7-difluoro-5-methyl-6-oxo-6,7,8,9-tetrahydro-5H-pyrimido[4,5-b][1,4]diazepin-2-ylamino)-3-methoxybenzamide]
12 | ≤ 2 | COc1cc(C(=O)NC2CCN(CCO)CC2)ccc1Nc1ncc2c(n1)N(C1CCCCC1)CC(F)(F)C(=O)N2C [Compound 44, 4-(9-cyclohexyl-7,7-difluoro-5-methyl-6-oxo-6,7,8,9-tetrahydro-5H-pyrimido[4,5-b][1,4]diazepin-2-ylamino)-N-(1-(2-hydroxyethyl)piperidin-4-yl)-3-methoxybenzamide]
13 | > 2 | COc1cc(C(=O)NCCCN(C)C)ccc1Nc1ncc2c(n1)N(C1CCCCC1)CC(F)(F)C(=O)N2C [Compound 54, 4-(9-cyclohexyl-7,7-difluoro-5-methyl-6-oxo-6,7,8,9-tetrahydro-5H-pyrimido[4,5-b][1,4]diazepin-2-ylamino)-N-(3-(dimethylamino)propyl)-3-methoxybenzamide]
14 | > 2 | COc1cc(C(=O)NCCN2CCCC2)ccc1Nc1ncc2c(n1)N(C1CCCCC1)CC(F)(F)C(=O)N2C [Compound 56, 4-(9-cyclohexyl-7,7-difluoro-5-methyl-6-oxo-6,7,8,9-tetrahydro-5H-pyrimido[4,5-b][1,4]diazepin-2-ylamino)-3-methoxy-N-(2-(pyrrolidin-1-yl)ethyl)benzamide]
15 | > 2 | COc1cc(C(=O)N2CCN(C)CC2)ccc1Nc1ncc2c(n1)N(C1CCCCC1)CC(F)(F)C(=O)N2C [Compound 57, 9-cyclohexyl-7,7-difluoro-2-(2-methoxy-4-(4-methylpiperazine-1-carbonyl)-phenylamino)-5-methyl-8,9-dihydro-5H-pyrimido[4,5-b][1,4]diazepin-6(7H)-one]
16 | ≤ 2 | COc1cc(C(N)=O)ccc1Nc1ncc2c(n1)N(C1CCCCC1)CC(F)(F)C(=O)N2C [Compound 58, 4-(9-cyclohexyl-7,7-difluoro-5-methyl-6-oxo-6,7,8,9-tetrahydro-5H-pyrimido[4,5-b][1,4]diazepin-2-ylamino)-3-methoxybenzamide]
17 | ≤ 2 | CNC(=O)c1ccc(Nc2ncc3c(n2)N(C2CCCCC2)CC(F)(F)C(=O)N3C)c(OC)c1 [Compound 60, 4-(9-cyclohexyl-7,7-difluoro-5-methyl-6-oxo-6,7,8,9-tetrahydro-5H-pyrimido[4,5-b][1,4]diazepin-2-ylamino)-3-methoxy-N-methylbenzamide]
18 | ≤ 2 | COc1cc(C(=O)NN(C)C)ccc1Nc1ncc2c(n1)N(C1CCCCC1)CC(F)(F)C(=O)N2C [Compound 61, 4-(9-cyclohexyl-7,7-difluoro-5-methyl-6-oxo-6,7,8,9-tetrahydro-5H-pyrimido[4,5-b][1,4]diazepin-2-ylamino)-3-methoxy-N′,N′-dimethylbenzohydrazide]
19 | ≤ 2 | COc1cc(C(=O)NC[C@@H](C)O)ccc1Nc1ncc2c(n1)N(C1CCCCC1)CC(F)(F)C(=O)N2C [Compound 62, (R)-4-(9-cyclohexyl-7,7-difluoro-5-methyl-6-oxo-6,7,8,9-tetrahydro-5H-pyrimido[4,5-b][1,4]diazepin-2-ylamino)-N-(2-hydroxypropyl)-3-methoxybenzamide]
20 | ≤ 2 | COc1cc(C(=O)NC[C@H](C)O)ccc1Nc1ncc2c(n1)N(C1CCCCC1)CC(F)(F)C(=O)N2C [Compound 63, (S)-4-(9-cyclohexyl-7,7-difluoro-5-methyl-6-oxo-6,7,8,9-tetrahydro-5H-pyrimido[4,5-b][1,4]diazepin-2-ylamino)-N-(2-hydroxypropyl)-3-methoxybenzamide]
21 | ≤ 2 | COc1cc(C(=O)NN2CCCCC2)ccc1Nc1ncc2c(n1)N(C1CCCCC1)CC(F)(F)C(=O)N2C [Compound 64, 4-(9-cyclohexyl-7,7-difluoro-5-methyl-6-oxo-6,7,8,9-tetrahydro-5H-pyrimido[4,5-b][1,4]diazepin-2-ylamino)-3-methoxy-N-(piperidin-1-yl)benzamide]

Row | Structure (SMILES) | IC50 [nM]
22 | COc1cc(C(=O)N[C@H]2CN3CCC2CC3)ccc1Nc1ncc2c(n1)N(C1CCCCC1)CC(F)(F)C(=O)N2C [Compound 45, (R)-4-(9-cyclohexyl-7,7-difluoro-5-methyl-6-oxo-6,7,8,9-tetrahydro-5H-pyrimido[4,5-b][1,4]diazepin-2-ylamino)-3-methoxy-N-(quinuclidin-3-yl)benzamide] | ≤ 2
23 | COc1cc(C(=O)N[C@@H]2CN3CCC2CC3)ccc1Nc1ncc2c(n1)N(C1CCCCC1)CC(F)(F)C(=O)N2C [Compound 46, (S)-4-(9-cyclohexyl-7,7-difluoro-5-methyl-6-oxo-6,7,8,9-tetrahydro-5H-pyrimido[4,5-b][1,4]diazepin-2-ylamino)-3-methoxy-N-(quinuclidin-3-yl)benzamide] | > 2
24 | COc1cc(C(=O)NC2CC3CCC(C2)N3C)ccc1Nc1ncc2c(n1)N(C1CCCCC1)CC(F)(F)C(=O)N2C (stereo not drawn) [Compound 51, 4-(9-cyclohexyl-7,7-difluoro-5-methyl-6-oxo-6,7,8,9-tetrahydro-5H-pyrimido[4,5-b][1,4]diazepin-2-ylamino)-3-methoxy-N-(8-methyl-8-azabicyclo[3.2.1]octan-3-yl)benzamide] | ≤ 2
